Data reported in PubChem BioAssay (NCI).
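Cultured in 96-well plates, cells were exposed to test compound for 48 hours across five concentrations. Abbreviation: GI50, concentration required for 50% inhibition of growth. At the TGI there is no net growth.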

What was measured:
Test in all cases: DTP human tumour cell line panel, 48 h
[1] = tested on: A498 renal
[2] = tested on: DU-145 prostate
[3] = tested on: EKVX NSCLC
[4] = tested on: HOP-62 NSCLC
[5] = tested on: NCI-H226 lung
[6] = tested on: PC-3 prostate
[7] = tested on: SK-MEL-5 melanoma
[8] = tested on: SK-OV-3 ovarian
[9] = tested on: UACC-62 melanoma
[10] = tested on: UO-31 renal

Question: `N#CN1CCC[C@H]1C(=O)N1CCc2c(-c3[nH]nc4ncccc34)cccc21` was tested. Which GI50 [1] did it give?
Answer: < 0.0114 µM

Question: What about the TGI [1] of the same compound?
Answer: 0.148 µM

Question: And the GI50 [2]?
Answer: 0.018 µM

Question: And the TGI [2]?
Answer: 11.3 µM

Question: What about the GI50 [3] of the same compound?
Answer: 0.101 µM

Question: What about the TGI [3] of the same compound?
Answer: 25 µM

Question: What about the GI50 [4] of the same compound?
Answer: 0.0222 µM

Question: What about the TGI [4] of the same compound?
Answer: 10.6 µM

Question: What about the GI50 [5] of the same compound?
Answer: 0.051 µM

Question: And the TGI [5]?
Answer: 0.219 µM

Question: And the GI50 [6]?
Answer: < 0.01 µM

Question: And the TGI [6]?
Answer: 23.6 µM

Question: What about the GI50 [7] of the same compound?
Answer: 0.0606 µM

Question: And the TGI [7]?
Answer: 0.126 µM

Question: And the GI50 [8]?
Answer: 0.013 µM

Question: And the TGI [8]?
Answer: 0.0694 µM

Question: And the GI50 [9]?
Answer: < 0.01 µM

Question: What about the TGI [9] of the same compound?
Answer: 12.2 µM

Question: And the GI50 [10]?
Answer: 0.0431 µM

Question: And the TGI [10]?
Answer: 5.11 µM

Question: How did the GI50 [1] turn out when `C#COc1cccc(Nc2ncnc3ncc(NC(=O)CCl)cc23)c1` was run?
Answer: > 62.5 µM

Question: And the TGI [1]?
Answer: > 62.5 µM

Question: And the GI50 [2]?
Answer: > 26.4 µM

Question: What about the TGI [2] of the same compound?
Answer: > 62.5 µM

Question: And the GI50 [3]?
Answer: > 62.5 µM

Question: And the TGI [3]?
Answer: > 62.5 µM

Question: What about the GI50 [4] of the same compound?
Answer: > 62.5 µM

Question: What about the TGI [4] of the same compound?
Answer: > 62.5 µM

Question: What about the GI50 [5] of the same compound?
Answer: > 62.5 µM

Question: What about the TGI [5] of the same compound?
Answer: > 62.5 µM

Question: And the GI50 [6]?
Answer: > 36.7 µM

Question: And the TGI [6]?
Answer: > 62.5 µM

Question: What about the GI50 [7] of the same compound?
Answer: > 51.2 µM

Question: What about the TGI [7] of the same compound?
Answer: > 62.5 µM

Question: And the GI50 [8]?
Answer: > 62.5 µM

Question: What about the TGI [8] of the same compound?
Answer: > 62.5 µM

Question: And the GI50 [9]?
Answer: > 36.1 µM

Question: What about the TGI [9] of the same compound?
Answer: > 62.5 µM

Question: What about the GI50 [10] of the same compound?
Answer: > 14 µM

Question: And the TGI [10]?
Answer: > 33.2 µM

Question: What does the source list for `N#Cc1c(NC(=O)CN2CCOCC2)sc2c1CCCC2`?
Answer: GI50 [1]: 3.2 µM; TGI [1]: > 25 µM; GI50 [2]: > 25 µM; TGI [2]: > 25 µM; GI50 [3]: > 25 µM; TGI [3]: > 25 µM; GI50 [4]: > 25 µM; TGI [4]: > 25 µM; GI50 [5]: > 25 µM; TGI [5]: > 25 µM; GI50 [6]: > 25 µM; TGI [6]: > 25 µM; GI50 [7]: > 25 µM; TGI [7]: > 25 µM; GI50 [8]: > 25 µM; TGI [8]: > 25 µM; GI50 [9]: > 25 µM; TGI [9]: > 25 µM; GI50 [10]: > 25 µM; TGI [10]: > 25 µM
